Read-outs that look alike come from different tables or passages of the source.
Experiments:
A1 adenosine receptors = molecular target: T1, A1 adenosine receptors (Rattus norvegicus, UniProt P25099); assay: inhibition of binding of [3H]N6-phenylisopropyladenosine ([3H]PIA) to A1 adenosine receptors in rat cerebral cortex membranes
T1 construct: A1 adenosine receptors in rat cerebral cortex membranes; from tissue; host or cells: rat cerebral cortex membranes
T1 sequence (P25099 1-326): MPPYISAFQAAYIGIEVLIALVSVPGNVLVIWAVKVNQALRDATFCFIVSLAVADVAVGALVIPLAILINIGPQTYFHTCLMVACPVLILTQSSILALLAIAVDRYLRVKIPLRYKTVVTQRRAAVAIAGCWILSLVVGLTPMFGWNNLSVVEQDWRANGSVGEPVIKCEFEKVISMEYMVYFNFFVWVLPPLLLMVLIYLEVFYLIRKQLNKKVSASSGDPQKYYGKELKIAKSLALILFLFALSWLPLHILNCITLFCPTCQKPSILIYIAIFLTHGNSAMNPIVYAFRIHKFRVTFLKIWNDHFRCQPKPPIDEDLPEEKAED
Description: Ukena et al., FEBS Letters 209;122, 1986.
For the biochemical assays, stock solutions of xanthines in the millimolar concentration range in dimethylsulfoxide were prepared and stored frozen. The solutions were warmed to 50° C. prior to dilution in aqueous medium. […] Acad. Sci. USA, 83:4089, 1986. Inhibition of binding by a range of concentrations of a xanthine or adenosine derivative was assessed in triplicate in at least three separate experiments.

central A1 receptors [1] = molecular target: T2, central A1 receptors (Bos taurus, UniProt P28190); assay: inhibition of radioligand binding at central A1 receptors, calf brain membranes
T2 construct: A1 -adenosine receptors in membranes form calf brain; from tissue; host or cells: calf brain membranes
T2 sequence (P28190 1-326): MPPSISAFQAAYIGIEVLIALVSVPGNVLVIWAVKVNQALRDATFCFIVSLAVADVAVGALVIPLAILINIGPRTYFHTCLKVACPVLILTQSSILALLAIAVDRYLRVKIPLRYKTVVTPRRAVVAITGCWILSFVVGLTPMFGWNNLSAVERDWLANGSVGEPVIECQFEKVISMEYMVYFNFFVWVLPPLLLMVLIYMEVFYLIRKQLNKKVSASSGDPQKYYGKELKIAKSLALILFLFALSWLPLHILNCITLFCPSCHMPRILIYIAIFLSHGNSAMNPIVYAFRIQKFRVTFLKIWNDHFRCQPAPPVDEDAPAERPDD
Text: ^b against [^125 I]APNEA (i.e. N^6
^b against [^125 I]APNEA;
The compounds, at concentrations relative to the Ki -values obtained, were screened for the ability to inhibit competitive binding of the radioligands [^3 H]PIA to rat brain membranes and [^3 H]XAC to bovine brain membranes, a shown in Table 1.

central A1 receptors [2] = molecular target: T3, central A1 receptors (Rattus norvegicus, UniProt P25099); type: binding
T3 construct: A1 -adenosine receptors in rat brain membranes; from tissue; host or cells: rat brain membranes
T3 sequence (P25099 1-326): T1 sequence (P25099 1-326)

A1-adenosine receptors [3] = assay: irreversible inhibition of [3H]XAC binding sites after one hour incubation and washout, bovine brain membranes; design: species or system bovine (calf)
rat brain membranes = molecular target: T4, rat brain membranes (Rattus norvegicus, UniProt P25099); assay: inhibition of [3H]XAC binding to rat brain membranes (blocking experiments)
T4 construct: A1 -adenosine receptors in rat brain membranes; from tissue; host or cells: rat brain membranes
T4 sequence (P25099 1-326): T1 sequence (P25099 1-326)

A1-adenosine receptors [4] = assay: covalent labeling of solubilized central A1 receptor preparation, SDS electrophoresis; type: binding; details: tritiated 4b, SDS gel, with or without high concentration of R-PIA
Description: An SDS electrophoresis gel separated proteins from a solubilized central A1 receptor preparation, pretreated with compound 4b (lane 1).

stability to storage = type: physicochemical; details: result in words
Description: A modification of the procedure of Newman et al., J. Med. Chem. 30: 1901, 1987, was used. In this procedure, 1,3-phenylenediamine, 0.211 grams, 1.95 mmol, was dissolved in 80 ml chloroform. Thirty ml water and 0.38 gram, 4.5 mmol, sodium bicarbonate was added, and the mixture was stirred vigorously. After ten minutes, 0.4 ml, 5.2 mmol of freshly distilled thiophosgene was added. After one hour, the phases were separated, and the organic layer was dried over sodium sulfate and evaporated. The residue was triturated with ether:petroleum ether, 1:1, and filtered. The filtrate was evaporated, leaving the product as a white solid (0.30 g, 81% yield), melting at 50.5°-51° C.

[5] = chemical reactivity towards primary amines (thin layer chromatography); type: physicochemical; details: ethylene diamine in molar excess, TLC

Which Ki (A1 adenosine receptors; Table I, rat, against [3H]PIA, read-out: Ki at central A1 receptors, rat) does the source give for `CCCn1c(=O)c2nc(-c3ccc(OCC(=O)NCCN=C(S)Nc4ccc(N=C=S)cc4)cc3)[nH]c2n(CCC)c1=O` [Compound 4b] here?
Its Ki is 6.6 ± 1.31 nM.

And the Ki (central A1 receptors [1])?
Its Ki is 1 nM.

What about the remaining activity at 0.1 µM (central A1 receptors [2]; 1 h, read-out: remaining receptor binding sites after treatment (of initial density)) of the same compound?
Its remaining activity at 0.1 µM is 34%.

And the “irreversible inhibition of A1-adenosine receptors, rat brain membranes” value (central A1 receptors [2]; rat brain, result in words)?
The value was “irreversibly inhibits A1 -adenosine receptors in membranes form calf brain and from rat brain in a dose-dependent manner”.

And the inhibition at 0.1 µM (central A1 receptors [2]; read-out: % inhib (conc))?
The inhibition at 0.1 µM was 63%.

What about the “irreversible inhibition of central A1-adenosine receptors” value (central A1 receptors [2]; result in words) of the same compound?
The value was “behave pharmacologically as irreversible inhibitors of central A1 -adenosine receptors”.

And the “adenosine receptor binding sites irreversibly inhibited” value (A1-adenosine receptors [3]; 500 nM, one hour incubation, bovine brain membranes, [3H]XAC binding)?
Its value is 90%.

And the “irreversible inhibition of A1-adenosine receptors, calf brain membranes” value (A1-adenosine receptors [3]; calf/bovine brain, result in words)?
Its value is “irreversibly inhibits A1 -adenosine receptors in membranes form calf brain and from rat brain in a dose-dependent manner”.

What about the Ki (rat brain membranes) of the same compound?
The Ki was 22 nM.

What about the “covalent labeling of A1-adenosine receptor” value (A1-adenosine receptors [4]) of the same compound?
Its value is “Specific labeling of the receptor (MW approximately 40,000)”.

What about the stability to storage (stability to storage) of the same compound?
The stability to storage was “stable to storage at -20 °C”.

And the “reactivity towards primary amines” value [5]?
The value was “quantitatively reactive towards primary amines”.

For `S=C=Nc1cccc(N=C=S)c1` [Compound 5a, 1,3-phenyldiisothiocyanate], which stability to storage (stability to storage) is on record?
Its stability to storage is “stable to storage at room temperature for at least several weeks”.

For `O=C(Cc1ccc(NC(=O)Cc2ccc(Nc3ncnc4c3ncn4[C@@H]3O[C@H](CO)[C@@H](O)[C@H]3O)cc2)cc1)NCCNC(=S)Nc1cccc(N=C=S)c1` [Compound 28], which Ki (A1 adenosine receptors) is on record?
Its Ki is 0.86 nM.

What about the Ki (central A1 receptors [1]) of the same compound?
Its Ki is 0.1 nM.

And the inhibition at 0.05 µM (central A1 receptors [2]; read-out: % inhib (conc))?
Its inhibition at 0.05 µM is greater than 80%.

And the “irreversible inhibition of central A1-adenosine receptors” value (central A1 receptors [2]; result in words)?
Its value is “behave pharmacologically as irreversible inhibitors of central A1 -adenosine receptors”.

Which “covalent labeling of A1-adenosine receptor” value (A1-adenosine receptors [4]) does the source give for `C[C@H](Cc1ccccc1)Nc1ncnc2c1ncn2[C@@H]1O[C@H](CO)[C@@H](O)[C@H]1O` [R-PIA, reference compound] here?
The value was “blocks the irreversible ligand”.

For `CCCn1c(=O)c2[nH]c(-c3ccc(OCC(=O)NCCNC(=S)Nc4ccc(NC(=S)NCCN)cc4)cc3)nc2n(CCC)c1=O` [ethylene diamine adduct], which Ki (rat brain membranes; rat brain membranes, [3H]XAC) is on record?
Its Ki is 18 nM.

— US5298508A, “Irreversible inhibitors of adenosine receptors” (priority 1992, dated 1994)
